Publication PMC10241580, “Bioassay-Guided Isolation of Antiplasmodial Compounds from Hypericum lanceolatum Lam. (Hypericaceae) and Their Cytotoxicity and Molecular Docking” (BioMed Research International, 2023)
≈ marks a conversion by molar mass, not a printed value.

Experiments:
[1] = In vitro cytotoxicity MTT assay on P388 cell line; type: cell-based; conditions: mouse, mean ± SD (n = 3)
Experimental: The in vitro study of the cytotoxicity potency of the isolated compounds was performed using the P388 (mouse leukaemia) cell line which was obtained from the American Type Culture Collection (ATCC) (Rockville, MD, USA). The cells were arranged in 96-well plates at a density of 10^4 cells per well containing […] of culture medium and then cultured for 24 h in the opti-MEM medium supplemented with 2 mM glutamine (Gibco, Grand Island, NY, USA), streptomycin (50 μg/mL), penicillin (50 U/mL), and 5% fetal calf serum (Gibco). After the cell cultures were maintained at 37°C in an atmosphere saturated with 5% CO2, the four tested compounds prepared at the concentration of 1 mg/mL by dissolving in the mixture DMSO/culture medium (1 : 9) were diluted in cell culture to reach the required concentrations (ranging from 1 to 100 μg/mL). The in vitro cytotoxic activity of the tested compounds was evaluated using the MTT assay for leukaemia cells.

Plasmodium parasite = test system: Plasmodium parasite; parameters: method as in doi:10.1016/j.sajb.2022.11.021; conditions: in words; cited from earlier work

| SMILES | IC50 ([1]; P388 cells) | IC50 ([1]; P388 leukaemia cells) | Antiplasmodial potency (Plasmodium parasite) |
| --- | --- | --- | --- |
| O=c1c2ccc(O)cc2oc2cccc(O)c12 [Compound 1, 1,6-dihydroxyxanthone] | 17.6 ± 0.7 µg/mL (≈ 77.1 µM) |  |  |
| O=c1c2cc(O)c(O)cc2oc2cc(O)cc(O)c12 [Compound 2, norathyriol] |  | 21.8 ± 0.3 µg/mL (≈ 83.8 µM) |  |
| C=C(C)[C@@H]1CC[C@]2(C(=O)O)CC[C@]3(C)[C@H](CC[C@@H]4[C@@]5(C)CC[C@H](O)C(C)(C)[C@@H]5CC[C@]43C)[C@@H]12 [Compound 3, betulinic acid] | 6.8 ± 2.2 µg/mL (≈ 14.9 µM) |  |  |
| C[C@H]1[C@H](C)CC[C@]2(C(=O)O)CC[C@]3(C)C(=CC[C@@H]4[C@@]5(C)CC[C@H](O)C(C)(C)[C@@H]5CC[C@]43C)[C@H]12 [Compound 4, ursolic acid] |  | 2.5 ± 0.6 µg/mL (≈ 5.47 µM) | weak |
